Tests used:
[1] = biological target: human Orexin type 2 receptors (Homo sapiens (Human), UniProt O43614); assay: Scintillation Proximity Assay (SPA) binding assay, [3H]EMPA displacement, HEK-hOX2 membranes; settings: for Ki: read-out: OX2 pKi (SPA binding) (converted)
[2] = biological target: human Orexin type 1 receptors (Homo sapiens (Human), UniProt O43613); assay: Scintillation Proximity Assay (SPA) binding assay, [3H]SB-674042 displacement, CHO-hOX1 membranes; settings: for Ki: read-out: OX1 pKi (SPA binding) (converted)
Sequence of human Orexin type 1 receptors (O43613 whole entry): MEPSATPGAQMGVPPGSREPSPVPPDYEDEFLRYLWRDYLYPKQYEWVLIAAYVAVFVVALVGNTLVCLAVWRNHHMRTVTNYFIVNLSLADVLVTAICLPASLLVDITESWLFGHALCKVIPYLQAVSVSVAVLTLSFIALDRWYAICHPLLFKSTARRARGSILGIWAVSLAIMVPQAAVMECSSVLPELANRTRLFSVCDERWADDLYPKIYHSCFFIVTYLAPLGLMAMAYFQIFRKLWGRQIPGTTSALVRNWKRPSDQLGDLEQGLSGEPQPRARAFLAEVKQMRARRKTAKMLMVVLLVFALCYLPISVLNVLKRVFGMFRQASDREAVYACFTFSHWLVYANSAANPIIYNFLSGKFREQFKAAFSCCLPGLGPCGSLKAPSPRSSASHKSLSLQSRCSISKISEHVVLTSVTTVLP

Sequence of human Orexin type 2 receptors (O43614 whole entry): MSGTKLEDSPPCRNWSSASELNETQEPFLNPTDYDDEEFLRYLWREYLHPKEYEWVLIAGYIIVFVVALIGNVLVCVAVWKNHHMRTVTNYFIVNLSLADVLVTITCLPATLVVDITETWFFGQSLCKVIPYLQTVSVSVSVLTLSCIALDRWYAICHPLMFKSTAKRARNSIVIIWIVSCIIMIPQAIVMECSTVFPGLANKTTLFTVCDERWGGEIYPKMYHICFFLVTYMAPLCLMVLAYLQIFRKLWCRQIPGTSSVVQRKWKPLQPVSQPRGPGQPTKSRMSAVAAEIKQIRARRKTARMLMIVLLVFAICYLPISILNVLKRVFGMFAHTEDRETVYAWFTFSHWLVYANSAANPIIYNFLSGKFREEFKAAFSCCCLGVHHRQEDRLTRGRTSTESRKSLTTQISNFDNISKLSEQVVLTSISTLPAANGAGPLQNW

| SMILES | OX2 pKi (SPA binding) ([1]; Table 2, [3H]EMPA 2 nM) | OX1 pKi (SPA binding) ([2]; Table 2, [3H]SB-674042 2 nM) | other results |
| --- | --- | --- | --- |
| C[C@@H]1C2CC(C2)N(C(=O)c2cc(Cl)ccc2-n2nccn2)C1CNc1ncc(C(F)(F)F)cn1 (stereo partly drawn) [Example 239, cis-N-({2-[5-chloro-2-(2H-1,2,3-triazol-2-yl)benzoyl]-4-methyl-2-azabicyclo[3.1.1]heptan-3-yl}methyl)-5-(trifluoromethyl)pyrimidin-2-amine] | 5.51 | 8.04 |  |
| COc1nc(C(=O)N2C(COc3ccc(F)cc3)CC3CC2C3)c(-c2ccccc2)s1 (stereo not shown) [Example 52] |  |  | OX2 pKi (SPA binding) ([1]; Table 1, [3H]EMPA 2 nM): 6.79; OX1 pKi (SPA binding) ([2]; Table 1, [3H]SB-674042 2 nM): 7.71 |
| Cc1ccc(-n2nccn2)c(C(=O)N2C3CC(C3)[C@@H](C)C2CNc2cnc3cc(F)ccc3n2)n1 (single isomer, unassigned) [Example 200, 6-fluoro-N-{[(3R,4S) or (3S,4R)-4-methyl-2-[6-methyl-3-(2H-1,2,3-triazol-2-yl)pyridine-2-carbonyl]-2-azabicyclo[3.1.1]heptan-3-yl]methyl}quinoxalin-2-amine] | 6.37 | 8.24 |  |
| Cc1ccc(-c2nccs2)c(C(=O)N2C3CC(C3)[C@H](C)C2COc2ccc(F)cc2)n1 (single isomer, unassigned) [Example 108, (3S,4S or 3R,4R)-3-[(4-fluorophenoxy)methyl]-4-methyl-2-[6-methyl-3-(1,3-thiazol-2-yl)pyridine-2-carbonyl]-2-azabicyclo[3.1.1]heptane] |  |  | Ki ([1]; Table 1, [3H]EMPA 2 nM): 407 nM; Ki ([2]; Table 1, [3H]SB-674042 2 nM): 3.24 nM |
| Cc1ccc(-c2ncccn2)c(C(=O)N2C3CC(C3)[C@H](C)[C@@H]2COc2ccc(F)cc2)n1 (single isomer, unassigned) [Example 91, (3S,4R or 3R,4S)-3-(4-fluorophenoxymethyl)-4-methyl-2-[6-methyl-3-(pyrimidin-2-yl)pyridine-2-carbonyl]-2-azabicyclo[3.1.1]heptane] |  |  | Ki ([1]; Table 1, [3H]EMPA 2 nM): 35.5 nM; Ki ([2]; Table 1, [3H]SB-674042 2 nM): 3.47 nM |
| Cc1nc(C(=O)N2C3CC(C3)[C@H](C)C2COc2ccc(F)cn2)c(-c2ccccn2)s1 (mixture of isomers) [Example 117, trans-3-{[(5-fluoropyridin-2-yl)oxy]methyl}-4-methyl-2-[2-methyl-5-(pyridin-2-yl)-1,3-thiazole-4-carbonyl]-2-azabicyclo[3.1.1]heptane] | 5.47 | 7.13 |  |
| C[C@@H]1C2CC(C2)N(C(=O)c2cc(C#N)ccc2-n2nccn2)C1CNc1cnc2cc(F)ccc2n1 (mixture of isomers) [Example 238, cis-3-(3-{[(6-fluoroquinoxalin-2-yl)amino]methyl}-4-methyl-2-azabicyclo[3.1.1]heptane-2-carobnyl)-4-(2H-1,2,3-triazol-2-yl)benzonitrile] | 6.32 | 7.98 |  |
| Cc1ccc(-n2nccn2)c(C(=O)N2C3CC(C3)[C@@H](C)C2CNc2cc3ccccc3cn2)n1 (stereo partly drawn) [Example 151, cis-N-({4-methyl-2-[6-methyl-3-(2H-1,2,3-triazol-2-yl)pyridine-2-carbonyl]-2-azabicyclo[3.1.1]heptan-3-yl}methyl)isoquinolin-3-amine] | 5.42 | 7.59 |  |
| Cc1ccc(-n2nccn2)c(C(=O)N2C3CC(C3)[C@@H](C)C2CNc2cncc(C(F)(F)F)n2)n1 (mixture of isomers) [Example 217, cis-N-({4-methyl-2-[6-methyl-3-(2H-1,2,3-triazol-2-yl)pyridine-2-carbonyl]-2-azabicyclo[3.1.1]heptan-3-yl}methyl)-6-(trifluoromethyl)pyrazin-2-amine] | 5.29 | 6.85 |  |
| C[C@@H]1C2CC(C2)N(C(=O)c2cc(Cl)ccc2-n2nccn2)C1CNc1nc2cccnc2s1 (mixture of isomers) [Example 234, cis-N-({2-[5-chloro-2-(2H-1,2,3-triazol-2-yl)benzoyl]-4-methyl-2-azabicyclo[3.1.1]heptan-3-yl}methyl)-[1,3]thiazolo[5,4-b]pyridin-2-amine] | 5.46 | 8.45 |  |
| C[C@@H]1C2CC(C2)N(C(=O)c2cc(Cl)ccc2-n2nccn2)C1CNc1cnc(C(F)(F)F)cn1 (mixture of isomers) [Example 203, cis-N-({2-[5-chloro-2-(2H-1,2,3-triazol-2-yl)benzoyl]-4-methyl-2-azabicyclo[3.1.1]heptan-3-yl}methyl)-5-(trifluoromethyl)pyrazin-2-amine] | 5.05 | 8.17 |  |
| Cc1ccc(-n2nccn2)c(C(=O)N2C(COc3ccc(F)cc3)CC3CC2C3)n1 (stereo not shown) [Example 39] |  |  | OX2 pKi (SPA binding) ([1]; Table 1, [3H]EMPA 2 nM): 6.19; OX1 pKi (SPA binding) ([2]; Table 1, [3H]SB-674042 2 nM): 7.64 |
| Cc1nc(C(=O)N2C(COc3cccc(F)c3)CC3CC2C3)c(-c2ccccc2)s1 (stereo not shown) [Example 44] |  |  | OX2 pKi (SPA binding) ([1]; Table 1, [3H]EMPA 2 nM): 6.38; OX1 pKi (SPA binding) ([2]; Table 1, [3H]SB-674042 2 nM): 7.15 |
| Cc1ccc(-n2nccn2)c(C(=O)N2C3CC(C3)[C@@H](C)C2COc2ccc(Cl)cn2)n1 (stereo partly drawn) [Example 99, cis-3-{[(5-chloropyridin-2-yl)oxy]methyl}-4-methyl-2-[6-methyl-3-(2H-1,2,3-triazol-2-yl)pyridine-2-carbonyl]-2-azabicyclo[3.1.1]heptane] |  |  | OX2 pKi (SPA binding) ([1]; Table 1, [3H]EMPA 2 nM): 6.18; OX1 pKi (SPA binding) ([2]; Table 1, [3H]SB-674042 2 nM): 7.37 |
| C[C@@H]1C2CC(C2)N(C(=O)c2cc(C#N)ccc2-n2nccn2)C1CNc1nc2ccc(F)cc2s1 (stereo partly drawn) [Example 175, cis-3-(3-{[(6-fluoro-1,3-benzothiazol-2-yl)amino]methyl}-4-methyl-2-azabicyclo[3.1.1]heptane-2-carbonyl)-4-(2H-1,2,3-triazol-2-yl)benzonitrile] | 6.02 | 8.41 |  |
| Cc1ccc(-n2nccn2)c(C(=O)N2C3CC(C3)[C@H](C)C2COc2ccc(F)c(F)c2)n1 (mixture of isomers) [Example 111, trans-3-[(3,4-difluorophenoxy)methyl]-4-methyl-2-[6-methyl-3-(2H-1,2,3-triazol-2-yl)pyridine-2-carbonyl]-2-azabicyclo[3.1.1]heptane] |  |  | OX2 pKi (SPA binding) ([1]; Table 1, [3H]EMPA 2 nM): 5.99; OX1 pKi (SPA binding) ([2]; Table 1, [3H]SB-674042 2 nM): 7.53 |
| C[C@@H]1C2CC(C2)N(C(=O)c2cc(Cl)ccc2-n2nccn2)C1CNc1nc2cccnc2s1 (single isomer, unassigned) [Example 236, N-{[(3R,4S) or (3S,4R)-2-[5-chloro-2-(2H-1,2,3-triazol-2-yl)benzoyl]-4-methyl-2-azabicyclo[3.1.1]heptan-3-yl]methyl}-[1,3]thiazolo[5,4-b]pyridin-2-amine] | 5.7 | 8.99 |  |
| C[C@@H]1C2CC(C2)N(C(=O)c2cc(C#N)ccc2-n2nccn2)C1CNc1nc2ccc(F)cc2s1 (single isomer, unassigned) [Example 177, 3-[(3R,4S) or (3S,4R)-3-{[(6-fluoro-1,3-benzothiazol-2-yl)amino]methyl}-4-methyl-2-azabicyclo[3.1.1]heptane-2-carbonyl]-4-(2H-1,2,3-triazol-2-yl)benzonitrile] | 6.46 | 8.95 |  |
| Cc1nc(C(=O)N2C3CC(C3)[C@H](F)[C@H]2COc2ccc(F)cn2)c(-c2ccccc2)s1 (single isomer, unassigned) [Example 63, (3R,4S or 3S,4R)-4-fluoro-3-{[(5-fluoropyridin-2-yl)oxy]methyl}-2-(2-methyl-5-phenyl-1,3-thiazole-4-carbonyl)-2-azabicyclo[3.1.1]heptane] |  |  | OX2 pKi (SPA binding) ([1]; Table 1, [3H]EMPA 2 nM): 6.37; OX1 pKi (SPA binding) ([2]; Table 1, [3H]SB-674042 2 nM): 8.06 |
| Cc1nc(C(=O)N2C3CC(C3)[C@H](C)[C@@H]2COc2cc3ccccc3cn2)c(-c2ccccc2)s1 (single isomer, unassigned) [Example 89, 3-{[(3S,4R or 3R,4S)-4-methyl-2-(2-methyl-5-phenyl-1,3-thiazole-4-carbonyl)-2-azabicyclo[3.1.1]heptan-3-yl]methoxy}isoquinoline] |  |  | Ki ([1]; Table 1, [3H]EMPA 2 nM): 1000 nM; Ki ([2]; Table 1, [3H]SB-674042 2 nM): 1.38 nM |
| Cc1nc(C(=O)N2C(COc3ccc(Cl)cc3)CC3CC2C3)c(-c2ccccc2)s1 (stereo not shown) [Example 49] |  |  | OX2 pKi (SPA binding) ([1]; Table 1, [3H]EMPA 2 nM): 6.81; OX1 pKi (SPA binding) ([2]; Table 1, [3H]SB-674042 2 nM): 7.88 |
| Cc1ccc(-n2nccn2)c(C(=O)N2C3CC(C3)[C@@H](C)C2CNc2nc3ccccc3o2)n1 (stereo in doubt) [Example 225, cis-N-({4-methyl-2-[6-methyl-3-(2H-1,2,3-triazol-2-yl)pyridine-2-carbonyl]-2-azabicyclo[3.1.1]heptan-3-yl}methyl)-1,3-benzoxazol-2-amine] | 5.22 | 8.32 |  |
| Cc1ccc(-n2nccn2)c(C(=O)N2C3CC(C3)[C@@H](C)C2CNc2cnc(C(F)(F)F)cn2)c1 (stereo partly shown) [Example 254] | 5.12 | 8.37 |  |
| CCOc1ccc(C)nc1C(=O)N1C2CC(C2)[C@@H](C)C1CNc1nc2ccc(F)cc2s1 (mixture of isomers) [Example 174, cis-N-{[2-(3-ethoxy-6-methylpyridine-2-carbonyl)-4-methyl-2-azabicyclo[3.1.1]heptan-3-yl]methyl}-6-fluoro-1,3-benzothiazol-2-amine] | 7.06 | 8.82 |  |
| Cc1nc(C(=O)N2C3CC(C3)[C@@H](C)C2CNc2nc3ccc(F)cc3s2)c(-c2ncccn2)s1 (mixture of isomers) [Example 162, cis-6-fluoro-N-({4-methyl-2-[2-methyl-5-(pyrimidin-2-yl)-1,3-thiazole-4-carbonyl]-2-azabicyclo[3.1.1]heptan-3-yl]methyl)-1,3-benzothiazol-2-amine] | 5.59 | 8.83 |  |
| Cc1cnc(NCC2[C@H](C)C3CC(C3)N2C(=O)c2nc(C)ccc2-n2nccn2)cn1 (mixture of isomers) [Example 216, cis-5-methyl-N-({4-methyl-2-[6-methyl-3-(2H-1,2,3-triazol-2-yl)pyridine-2-carbonyl]-2-azabicyclo[3.1.1]heptan-3-yl}methyl)pyrazin-2-amine] | 4.62 | 6.94 |  |

Reference: US11660293B2, “Substituted 2-azabicyclo[3.1.1]heptane and 2-azabicyclo[3.2.1]octane derivatives as orexin receptor antagonists” (Chronos Therapeutics Limited, priority 2017, dated 2023)
